Source: patent publication US20240050428A1 (Cullgen (Shanghai), Inc., priority 2020, published 2024)
Read-outs that look alike come from different tables or passages of the source.

Tests used:
[1] = test system: MOLM-13 cells; assay: Cell viability assay (CellTiter-Glo) in MOLM-13 cells, alone or with gilteritinib; type: cell-based; details: Homo sapiens
[2] = test system: MV4;11 cells; assay: Cell viability assay (CellTiter-Glo) in MV4;11 cells, alone or with gilteritinib; type: cell-based; details: Homo sapiens, read-out: MV4
[3] = MOLM-13, 72 h, MOLM-13 cells, compound alone (without gilteritinib), three days, CellTiter-Glo, read-out: MOLM-13 IC50
[4] = MOLM-13, 72 h, MOLM-13 cells, compound with gilteritinib 20 nM, three days, CellTiter-Glo, read-out: MOLM-13 IC50 gilteritinib
[5] = MV4-11, 72 h, MV4;11 cells, compound alone (without gilteritinib), three days, CellTiter-Glo, 11 IC50
[6] = MV4-11, 72 h, MV4;11 cells, compound with gilteritinib 10 nM, three days, CellTiter-Glo, 11 IC50 gilteritinib
[7] = MOLM-13, 72 h, MOLM-13 cells, with gilteritinib 20 nM, three days, CellTiter-Glo, read-out: MOLM-13 IC50 gilteritinib
[8] = MV4-11, 72 h, MV4;11 cells, with gilteritinib 10 nM, three days, CellTiter-Glo, 11 IC50 gilteritinib
[9] = MOLM-13, 72 h, MOLM-13 cells, with 20 nM gilteritinib, 3 days, CellTiter-Glo, read-out: MOLM-13 IC50 gilteritinib
[10] = MOLM-13, 72 h, MOLM-13 cells, without gilteritinib, 3 days, CellTiter-Glo, read-out: MOLM-13 IC50
[11] = MV4-11, 72 h, MV4;11 cells, with 10 nM gilteritinib, 3 days, CellTiter-Glo, 11 IC50 gilteritinib
[12] = MV4-11, 72 h, MV4;11 cells, without gilteritinib, 3 days, CellTiter-Glo, 11 IC50

SMILES | IC50 [1, 3] [µM] | IC50 [2, 5] [µM] | IC50 [1, 7] [µM] | IC50 [2, 8] [µM] | also measured
CN1CC(c2cccc(-c3cn([C@H]4C[C@H](CNc5ccc6c(c5)C(=O)N(C5CCC(=O)NC5=O)C6=O)C4)nc3C3CC3)n2)C1 (stereo partly drawn) [GS-619, 5-(((trans-3-(3-Cyclopropyl-4-(6-(1-methylazetidin-3-yl)pyridin-2-yl)-1H-pyrazol-1-yl)cyclobutyl)methyl)amino)-2-(2,6-dioxopiperidin-3-yl)isoindoline-1,3-dione] | > 1 | > 1 | – | – | IC50 [1, 4]: > 1 µM; IC50 [2, 6]: > 1 µM
O=C1CCC(N2C(=O)c3ccc(NCCCCCC(=O)N4CCC(n5cc(-c6cnc7cccc(N8CCNCC8)c7n6)cn5)CC4)cc3C2=O)C(=O)N1 (centres unmarked) [GS-035, 2-(2,6-Dioxopiperidin-3-yl)-5-((6-oxo-6-(4-(4-(8-(piperazin-1-yl)quinoxalin-2-yl)-1H-pyrazol-1-yl)piperidin-1-yl)hexyl)amino)isoindoline-1,3-dione] | > 1 | 0.01 to 0.1 | < 0.01 | < 0.01 | –
CN1CCN(C2CCN(C(=O)CCCCCNc3ccc4c(c3)C(=O)N(C3CCC(=O)NC3=O)C4=O)CC2)CC1 (centres unmarked) [GS-013, 2-(2,6-Dioxopiperidin-3-yl)-5-((6-(4-(4-methylpiperazin-1-yl)piperidin-1-yl)-6-oxohexyl)amino)isoindoline-1,3-dione] | – | – | – | – | IC50 [1, 9]: 1.85 µM; IC50 [1, 10]: > 10 µM; IC50 [2, 11]: > 10 µM; IC50 [2, 12]: > 10 µM
O=C1CCC(N2Cc3c(CNC(=O)c4cccc(N5CCC(n6cc(-c7cnc8ccccc8n7)cn6)CC5)c4)cccc3C2=O)C(=O)N1 (centres unmarked) [GS-509, N-((2-(2,6-Dioxopiperidin-3-yl)-1-oxoisoindolin-4-yl)methyl)-3-(4-(4-(quinoxalin-2-yl)-1H-pyrazol-1-yl)piperidin-1-yl)benzamide] | – | – | – | – | IC50 ([1]; MOLM-13, 72 h, read-out: MOLM-13 IC50): < 0.01 µM; IC50 ([1]; MOLM-13, 72 h, read-out: MOLM-13 IC50 gilteritinib): < 0.01 µM; IC50 ([2]; MV4-11, 72 h, 11 IC50): < 0.01 µM; IC50 ([2]; MV4-11, 72 h, 11 IC50 gilteritinib): < 0.01 µM
O=C1CCC(N2C(=O)c3ccc(NC[C@H]4C[C@H](n5cc(-c6nccc7ccncc67)c(C6CC6)n5)C4)cc3C2=O)C(=O)N1 (stereo partly drawn) [GS-284, 5-(((trans-3-(3-Cyclopropyl-4-(2,7-naphthyridin-1-yl)-1H-pyrazol-1-yl)cyclobutyl)methyl)amino)-2-(2,6-dioxopiperidin-3-yl)isoindoline-1,3-dione] | < 0.01 | < 0.01 | < 0.01 | < 0.01 | –
O=C1CCC(N2C(=O)c3ccc(NCCCc4cc(F)cc(N5CCC(c6ccccc6)CC5)c4)cc3C2=O)C(=O)N1 (centres unmarked) [GS-505, 2-(2,6-Dioxopiperidin-3-yl)-5-((3-(3-fluoro-5-(4-phenylpiperidin-1-yl)phenyl)propyl)amino)isoindoline-1,3-dione] | – | – | – | – | IC50 ([1]; 72 h, MOLM-13 cells, compound alone (without gilteritinib), three days, CellTiter-Glo, read-out: MOLM-13 IC50): 0.01 to 0.1 µM; IC50 ([1]; 72 h, MOLM-13 cells, compound with gilteritinib 20 nM, three days, CellTiter-Glo, read-out: MOLM-13 IC50 gilteritinib): < 0.01 µM; IC50 ([2]; 72 h, MV4;11 cells, compound alone (without gilteritinib), three days, CellTiter-Glo, 11 IC50): 0.01 to 0.1 µM; IC50 ([2]; 72 h, MV4;11 cells, compound with gilteritinib 10 nM, three days, CellTiter-Glo, 11 IC50 gilteritinib): 0.01 to 0.1 µM
Cc1nn(CCCCCCNc2ccc3c(c2)C(=O)N(C2CCC(=O)NC2=O)C3=O)cc1-c1cnc2ccccc2n1 (centres unmarked) [GS-534, 2-(2,6-Dioxopiperidin-3-yl)-5-((6-(3-methyl-4-(quinoxalin-2-yl)-1H-pyrazol-1-yl)hexyl)amino)isoindoline-1,3-dione] | 0.01 to 0.1 | 0.01 to 0.1 | – | – | IC50 [1, 4]: < 0.01 µM; IC50 [2, 6]: < 0.01 µM
Cc1ccccc1C(=O)N1CCN(C(=O)CCCCCNc2ccc3c(c2)C(=O)N(C2CCC(=O)NC2=O)C3=O)CC1 (centres unmarked) [GS-016, 2-(2,6-Dioxopiperidin-3-yl)-5-((6-(4-(2-methylbenzoyl)piperazin-1-yl)-6-oxohexyl)amino)isoindoline-1,3-dione] | – | – | – | – | IC50 [1, 9]: 0.086 µM; IC50 [1, 10]: > 10 µM; IC50 [2, 11]: > 10 µM; IC50 [2, 12]: > 10 µM

Continued, in another order:

IC50 [1, 3] [µM] | IC50 [2, 5] [µM] | IC50 [1, 7] [µM] | IC50 [2, 8] [µM] | SMILES | also measured
< 0.01 | < 0.01 | < 0.01 | < 0.01 | O=C1CCC(N2C(=O)c3ccc(NC[C@H]4C[C@H](n5cc(-c6nccc7nccnc67)c(C6CC6)n5)C4)cc3C2=O)C(=O)N1 (stereo partly drawn) [GS-309, 5-(((trans-3-(3-Cyclopropyl-4-(pyrido[3,4-b]pyrazin-5-yl)-1H-pyrazol-1-yl)cyclobutyl)methyl)amino)-2-(2,6-dioxopiperidin-3-yl)isoindoline-1,3-dione] | –
> 1 | > 1 | – | – | Cc1nc(-c2cn([C@H]3C[C@H](CCc4ccc5c(c4)C(=O)N(C4CCC(=O)NC4=O)C5=O)C3)nc2C2CC2)ccc1F (stereo partly drawn) [GS-629, 5-(2-(trans-3-(3-Cyclopropyl-4-(5-fluoro-6-methylpyridin-2-yl)-1H-pyrazol-1-yl)cyclobutyl)ethyl)-2-(2,6-dioxopiperidin-3-yl)isoindoline-1,3-dione] | IC50 [1, 4]: 0.1 to 1 µM; IC50 [2, 6]: 0.1 to 1 µM
< 0.01 | < 0.01 | – | – | O=C(Cc1cccc(N2CCN(c3ccccn3)CC2)c1)NCc1ccc2c(c1)CN(C1CCC(=O)NC1=O)C2=O (centres unmarked) [GS-483, N-((2-(2,6-dioxopiperidin-3-yl)-1-oxoisoindolin-5-yl)methyl)-2-(3-(4-(pyridin-2-yl)piperazin-1-yl)phenyl)acetamide] | IC50 [1, 4]: < 0.01 µM; IC50 [2, 6]: < 0.01 µM
0.1 to 1 | 0.01 to 0.1 | < 0.01 | 0.01 to 0.1 | N#Cc1ccc2ncc(-c3cnn([C@H]4C[C@H](CCCNc5ccc6c(c5)C(=O)N(C5CCC(=O)NC5=O)C6=O)C4)c3)nc2c1 (stereo partly drawn) [GS-198, 3-(1-(trans-3-(3-((2-(2,6-Dioxopiperidin-3-yl)-1,3-dioxoisoindolin-5-yl)amino)propyl)cyclobutyl)-1H-pyrazol-4-yl)quinoxaline-6-carbonitrile] | –
> 1 | 0.1 to 1 | > 1 | 0.1 to 1 | CC(C)(CCCNc1ccc2c(c1)C(=O)N(C1CCC(=O)NC1=O)C2=O)C(=O)N1CCC(n2cc(-c3cnc4ccccc4n3)cn2)CC1 (centres unmarked) [GS-139, 5-((4,4-Dimethyl-5-oxo-5-(4-(4-(quinoxalin-2-yl)-1H-pyrazol-1-yl)piperidin-1-yl)pentyl)amino)-2-(2,6-dioxopiperidin-3-yl)isoindoline-1,3-dione] | –
0.01 to 0.1 | 0.1 to 1 | – | – | O=C1CCC(N2C(=O)c3ccc(NCCCCCCn4cc(-c5cnc6ccc(C7CCNCC7)cc6n5)cn4)cc3C2=O)C(=O)N1 (centres unmarked) [GS-541, 2-(2,6-Dioxopiperidin-3-yl)-5-((6-(4-(7-(piperidin-4-yl)quinoxalin-2-yl)-1H-pyrazol-1-yl)hexyl)amino)isoindoline-1,3-dione] | IC50 [1, 4]: < 0.01 µM; IC50 [2, 6]: < 0.01 µM
> 1 | > 1 | 0.1 to 1 | > 1 | O=C1CCC(N2C(=O)c3ccc(NCCCCCCN4CCC(O)CC4)cc3C2=O)C(=O)N1 (centres unmarked) [GS-331, 2-(2,6-Dioxopiperidin-3-yl)-5-((6-(4-hydroxypiperidin-1-yl)hexyl)amino)isoindoline-1,3-dione] | –
> 1 | > 1 | > 1 | > 1 | O=C1CCC(N2Cc3ccc(NCCCCCCn4cc(-c5cnc6ccccc6n5)cn4)cc3C2=O)C(=O)N1 (centres unmarked) [GS-128, 3-(1-Oxo-6-((6-(4-(quinoxalin-2-yl)-1H-pyrazol-1-yl)hexyl)amino)isoindolin-2-) piperidine-2,6-dione] | –
> 1 | > 1 | > 1 | > 1 | O=C1CCC(N2Cc3c(NC4CCCN(Cc5cccc(N6CCC(n7cc(-c8cnc9ccccc9n8)cn7)CC6)c5)C4)cccc3C2=O)C(=O)N1 (centres unmarked) [GS-133, 3-(1-Oxo-4-((1-(3-(4-(4-(quinoxalin-2-yl)-1H-pyrazol-1-yl)piperidin-1-yl)benzyl)piperidin-3-yl)amino)isoindolin-2-yl)piperidine-2,6-dione] | –
